Source: patent US20240199572A1, “COMPOUNDS, COMPOSITIONS, AND METHODS FOR TREATING TYPE 2 DIABETES AND DEMENTIA” (THE BOARD OF TRUSTEES OF THE UNIVERSITY OF ILLINOIS, priority 2021, published 2024)

Columns and labels:
[1] = system: Nuclear hormone (NHR) receptors; experiment: All β-gal nuclear hormone receptor (NHR) screens; format: cell-based
Procedure: Receptor Binding Assays. Nuclear hormone (NHR) assays were performed by DiscoverX (Fremont, CA) on their NHR-Scan platform of cell-based protein-protein interaction assays. This platform uses a […] reporter that activates upon interaction of full-length receptor protein with steroid coactivator receptor peptides. In agonist mode, activity of CL2-57 at 10 μM was compared to maximal activity of published positive control agonists; in antagonist mode, reduction in activity with 10 μM CL2-57 from that observed at […] of published agonists was quantified.

[2] = molecular target: T1, LXRβ (Homo sapiens, UniProt P55055); experiment: LanthaScreen TR-FRET coactivator assay LXRβ; format: biochemical
T1 construct: purchased Thermo Fisher Scientific
T1 sequence (P55055 212-460 limits assumed): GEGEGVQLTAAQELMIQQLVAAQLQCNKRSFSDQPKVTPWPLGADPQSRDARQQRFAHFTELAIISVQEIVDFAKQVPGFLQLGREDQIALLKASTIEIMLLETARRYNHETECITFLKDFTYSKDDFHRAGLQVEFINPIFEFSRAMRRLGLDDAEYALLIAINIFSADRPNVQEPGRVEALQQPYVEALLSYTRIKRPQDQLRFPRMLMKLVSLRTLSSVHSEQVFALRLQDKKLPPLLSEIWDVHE

[3] = molecular target: T2, PPARγ (Homo sapiens, UniProt P37231); experiment: LanthaScreen TR-FRET coactivator assay PPARγ (antagonism of pioglitazone); format: biochemical
T2 construct: purchased Thermo Fisher Scientific
T2 sequence (P37231 232-505 limits assumed): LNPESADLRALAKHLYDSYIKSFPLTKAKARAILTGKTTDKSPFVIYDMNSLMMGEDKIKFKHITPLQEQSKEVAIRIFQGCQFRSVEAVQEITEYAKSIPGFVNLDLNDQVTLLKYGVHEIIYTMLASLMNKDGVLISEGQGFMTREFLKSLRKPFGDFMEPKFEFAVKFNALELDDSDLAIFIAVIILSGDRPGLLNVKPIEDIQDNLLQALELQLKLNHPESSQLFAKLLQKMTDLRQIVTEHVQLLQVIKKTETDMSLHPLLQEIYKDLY
Procedure: TR-FRET Receptor Binding Assays. LanthaScreen” TR-FRET coactivator assay kits for LXRβ (Thermo Fisher Scientific) and PPARγ (Thermo Fisher Scientific) were performed according to manufacturer instructions using low-binding black 384-well plates and Synergy Neo2 plate reader. For the PPARγ assay, standardization was first performed with control agonist (pioglitazone), then run in two antagonist assays: dose-response of pioglitazone with or without a single concentration of CL2-57, and dose-response of CL2-57 cotreated with a single concentration (500 nM) of pioglitazone. Each compound dose was performed in quadruplicate on each plate, and each experiment was performed in triplicate.

[4] = system: ABCA1 mRNA; experiment: ABCA1 mRNA - HepG2 (qRT-PCR); format: cell-based, human; details: Homo sapiens; ABCA1 mRNA-HepG2 assay (Table 7)
From the text: qRT-PCR. For cell samples, treated cells were lysed with RLT plus lysis buffer (Qiagen). RNA was isolated with Qiagen RNEASY® Plus columns per manufacturer instructions, then reverse-transcribed to cDNA using […]® III Reverse Transcriptase (200 U/μL, Invitrogen) per supplier protocol. qPCR experiments were either performed with TAQMAN® gene expression master mix (Invitrogen) on a StepOne™ qPCR instrument or with […]® SYBR® Green SuperMix (Quanta Biosciences) on CFX Connect™ Real-Time PCR Detection System (BioRad), with fold-change quantified by ΔΔCt. For animal samples, 100 mg tissue was homogenized in 1 mL acid-guanidinium-phenol based reagent sold under the tradename TRIZOL® (Ambion), mixed vigorously in chloroform, and separated by centrifugation. Aqueous layer containing RNA was added to Qiagen RNEASY® Plus column; remaining stops were as described above for cell lysates.

[5] = system: ABCA1; experiment: ABCA1 firefly reporter assay in CCF-001 cells; format: cell-based; details: ABCA1 firefly reporter assay in CCF-001 cells (Table 8)
[6] = system: ABCA1; experiment: ABCA1-linked luciferase assay in HepG2 cells; format: cell-based; details: Homo sapiens; HepG2 liver cells; Example 2, compounds active in ABCA1-Luc assay; read-out: EC50 in HepG2 liver cells
Procedure: Luciferase. HepG2 cells (RRID:CVCL 0027) purchased from ATCC and used without further validation were stably transfected with pGreenFire1-LXRE-in-ABCA1 plasmid, which contains the ABCA1 promoter sequence linked to a luciferase response element, then selected over multiple generations with puromycin and frozen in liquid N2. For assays, transfected cells were plated 24 hours in medium (Gibco) containing charcoal-stripped serum (Gemini), followed by a 24-hour treatment. Cells were lysed with passive lysis buffer (Promega), frozen at −80° C. for 15 minutes, and shaken at room temperature for 2 hours before quantification with luciferase assay system (Promega) on a Synergy Neo2 plate reader.

[7] = system: 5×FAD mice; experiment: 5×FAD mice treated with CL3-3; format: in vivo, mouse; details: female 5×FAD mice, 10 mg/kg PO daily, 10 days
Procedure: To evaluate preclinical efficacy, CL3-3 was studied in 5×FAD mice. […] Female 5×FAD mice (JAX) at 16 weeks of age were treated for 10 days with either CL3-3 (10 mg/kg PO gavage daily) or vehicle. Upon completion of treatment, mouse whole brain hemispheres were analyzed for mRNA expression levels of pro-inflammatory markers including CCL2, CCL3, CCL5 CXCL10, IL-6, COX2 and NOS2. Plasma from the same mice was analyzed.

[8] = system: E3/4FAD mice; experiment: E3/4FAD (EFAD) mice treated with CL3-3; format: in vivo, mouse
Procedure: A longer-term study was conducted in EFAD mice, which express the same five human AD mutations as 5×FAD mice and have also undergone targeted replacement of the mouse Apoe gene with one of the human APOE alleles: ε2, ε3, or ε4. In this study, EFAD mice with heterozygous ε3/ε4 alleles (E3/4FAD) were treated from 4 months of age until 6 months of age with CL3-3 (100 mg/kg/day in hydrogel replacement of drinking water) or vehicle.
Multiple readouts of AD-related pathology were conducted with subsets of these mice. Brain regions were first analyzed via ELISA for levels of soluble, oligomeric Aβ (oAβ), which is hypothesized to be the toxic form of amyloid that underlies downstream pathology and clinical presentation associated with AD. In E3/4FAD mice, oAβ levels decreased in the hippocampus in male mice and in the cerebral cortex in female mice. Treatment with CL3-3 also was synaptoprotective in cerebral cortex regions, particularly in male mice. Expression of synaptic proteins drebrin and PSD95 were increased in male E3/4FAD mice treated with CL3-3, as determined by western blot analysis.
The remaining subset of brain hemispheres from the treated E3/4FAD mice were fixed and analyzed by staining with thioflavin S (Thio-S). Thio-S is a fluorescent dye that binds to abnormally folded protein aggregates (i.e., amyloid).

[9] = system: CD1 mice; experiment: CD1 mice, three daily p.o. treatments, LXR agonist adverse effects; format: in vivo, mouse; details: 10 mg/kg p.o., three days
From the text: Neutrophil Counts. […] After final dose, blood samples were run on an Advia 120 analyzer (Bayer) for neutrophil counts.

Row | EC50 [4] [µM] | EC50 [5] [µM] | Compound | also measured
1 | 3.6 | 1.36 | CCOc1ccc(N(C)S(=O)(=O)c2cc(Cl)sc2C(=O)Nc2cccc(C(=O)OCCOCCOC)c2)cc1OCC [CL2-168, 2-(2-Methoxyethoxy) ethyl 3-(5-chloro-3-(N-(3,4-diethoxyphenyl)-N-methylsulfamoyl)thiophene-2-carboxamido) benzoate] | 
2 | 1.2 | 0.53 | CCOC(=O)c1cc(Cl)cc(NC(=O)c2sc(Cl)cc2S(=O)(=O)N(C)c2ccc(OC)c(OC)c2)c1 [CL3-9, Ethyl 3-chloro-5-(5-chloro-3-(N-(3,4-dimethoxyphenyl)-N-methylsulfamoyl)thiophene-2-carboxamido)benzoate] | 
3 | 0.42 | 0.066 | CCOc1ccc(N(C)S(=O)(=O)c2cc(Cl)sc2C(=O)Nc2cc(Cl)cc(C(=O)OCCOC)c2)cc1OC [CL3-11, 2-Methoxyethyl 3-chloro-5-(5-chloro-3-(N-(4-ethoxy-3-methoxyphenyl)-N-methylsulfamoyl)thiophene-2-carboxamido)benzoate] | 
4 | 0.24 | 0.029 | CCOC(=O)c1cc(F)cc(NC(=O)c2sc(Cl)cc2S(=O)(=O)N(C)c2ccc(OCC)c(OC)c2)c1 [GR1-053, Ethyl 3-(5-chloro-3-(N-(4-ethoxy-3-methoxyphenyl)-N-methylsulfamoyl)thiophene-2-carboxamido)-5-fluorobenzoate] | 
5 | 3.3 | 1.49 | CCOc1ccc(N(C)S(=O)(=O)c2cc(Cl)sc2C(=O)Nc2cccc(C(=O)OC)c2)cc1 [KB7-123, Methyl 3-(5-chloro-3-(N-(4-ethoxyphenyl)-N-methylsulfamoyl)thiophene-2-carboxamido)benzoate] | 

The next lines start with the compound.

Row | Compound | EC50 [4] [µM] | EC50 [5] [µM] | also measured
6 | CCOc1ccc(N(C)S(=O)(=O)c2cc(Cl)sc2C(=O)Nc2cccc(C(=O)O)c2)cc1OCC [CL2-129, 3-(5-Chloro-3-(N-(3,4-diethoxyphenyl)-N-methylsulfamoyl)thiophene-2-carboxamido)benzoic acid] |  |  | Activity in all of the β-gal screens [1]: inactive; Activity in LXRβ TR-FRET binding assay [2]: inactive; Activity in PPARγ TR-FRET binding assay [3]: inactive
7 | CCOc1ccc(N(C)S(=O)(=O)c2cc(Cl)sc2C(=O)Nc2cccc(C(=O)OCCOC)c2)cc1OCC [CL2-167, 2-Methoxyethyl 3-(5-chloro-3-(N-(3,4-diethoxyphenyl)-N-methylsulfamoyl)thiophene-2-carboxamido) benzoate] | 5 | 2.19 | 
8 | CCOC(=O)c1cccc(NC(=O)c2sc(Cl)cc2S(=O)(=O)N(C)c2ccc(N(C)C)cc2)c1 [CL2-181, Ethyl 3-(5-chloro-3-(N-(4-(dimethylamino)phenyl)-N-methylsulfamoyl)thiophene-2-carboxamido)benzoate] | 5 | 4.99 | 
9 | CCOC(=O)c1cccc(NC(=O)c2sc(Cl)cc2S(=O)(=O)N(C)c2cnc(OCC)c(F)c2)c1 [CL2-184, Ethyl 3-(5-chloro-3-(N-(6-ethoxy-5-fluoropyridin-3-yl)-N-methylsulfamoyl)thiophene-2-carboxamido)benzoate] | 4.5 | 4.95 | 
10 | CCOC(=O)c1cc(Cl)cc(NC(=O)c2sc(Cl)cc2S(=O)(=O)N(C)c2ccc(OCC)c(OCC)c2)c1 [CL2-187, Ethyl 3-chloro-5-(5-chloro-3-(N-(3,4-diethoxyphenyl)-N-methylsulfamoyl)thiophene-2-carboxamido) benzoate] | 0.81 | 0.247 | 
11 | CCOC(=O)c1cc(N)cc(NC(=O)c2sc(Cl)cc2S(=O)(=O)N(C)c2ccc(OCC)c(OCC)c2)c1 [CL2-191, Ethyl 3-amino-5-(5-chloro-3-(N-(3,4-diethoxyphenyl)-N-methylsulfamoyl)thiophene-2-carboxamido)benzoate] | > 5 | 8.42 | 
12 | CCOC(=O)c1cc(Cl)cc(NC(=O)c2sc(Cl)cc2S(=O)(=O)N(C)c2ccc(OCC)c(OC)c2)c1 [CL3-3, Ethyl 3-chloro-5-(5-chloro-3-(N-(4-ethoxy-3-methoxyphenyl)-N-methylsulfamoyl)thiophene-2-carboxamido) benzoate] | 0.3 | 0.099 | EC50 [6]: 0.3 µM; Brain mRNA levels of inflammatory markers (CCL2, CCL3, CCL5, CXCL10, IL-6, COX2, NOS2) [7]: reduced; Circulating TG levels [7]: not significantly altered; % area stained by Thio-S ([8]; all measured brain regions, males and females): decreased; Expression of synaptic proteins drebrin and PSD95 ([8]; male E3/4FAD mice, western blot): increased
13 | CCOc1ccc(N(C)S(=O)(=O)c2cc(Cl)sc2C(=O)Nc2cc(Cl)cc(C(=O)OC)c2)cc1OC [CL3-10, Methyl 3-chloro-5-(5-chloro-3-(N-(4-ethoxy-3-methoxyphenyl)-N-methylsulfamoyl)thiophene-2-carboxamido)benzoate] | 1.1 | 0.339 | 
14 | CCOc1ccc(N(C)S(=O)(=O)c2cc(Cl)sc2C(=O)Nc2cc(Cl)cc(C(=O)OCCOCCOC)c2)cc1OC [CL3-12, 2-(2-Methoxyethoxy) ethyl 3-chloro-5-(5-chloro-3-(N-(4-ethoxy-3-methoxyphenyl)-N-methylsulfamoyl)thiophene-2-carboxamido)benzoate] | 0.42 | 0.138 | 
15 | O=S(=O)(c1ccccc1)N(CC(F)(F)F)c1ccc(C(O)(C(F)(F)F)C(F)(F)F)cc1 [Compound T0901317, reference compound] |  |  | Circulating neutrophil levels [9]: reduced; Plasma TG [9]: increased
